According to patent publication US20220125051A1, “PRE-HARVEST DESICCATION METHOD” (SYNGENTA CROP PROTECTION AG, priority 2019, published 2022):
Where two headings read alike, the source gives them in different places.

Assays:
Format in all cases: in vivo
Eleusine indica (ELEIN) [1] = test: Post-emergence efficacy, Method B; settings: read-out: Control of weed species after post-emergence application, ELEIN
Procedure: (§1) An “instant formulation”, known as the IF50, containing 50 g/L of the “technical” (i.e. unformulated) active ingredient was prepared by dissolving the active ingredient in a mixture of organic solvents and emulsifier, details of which are provided in the table. This IF50 was then mixed with a small, variable amount of acetone to aid dissolution, before addition of an aqueous solution of 1% v/v ammonium sulphate+1% v/v Empicol ESC70 (Sodium lauryl ether sulphate) adjuvant, as the aqueous diluent, to form an aqueous spray solution which contains a predetermined concentration of the active ingredient (which varies depending on the application rate of the active ingredient to the plants).
(§2) This aqueous spray solution was then sprayed onto the plants, after about 12 days' cultivation. The plants were grown from seeds sown in standard soil, placed in a glasshouse under controlled conditions (at 24/18° C. or 20/16° C., day/night; 16 hours light; 65% humidity). After spray application the plants were then grown on in a glasshouse under the same conditions and watered twice daily. […] the test was evaluated (100=total damage to plant; 0=no damage to plant).
(§3) Ipomoea hederacea (IPOHE), Euphorbia heterophylla (EPHHL), Chenopodium album (CHEAL), Amaranthus retroflexus (AMARE), Lolium perenne (LOLPE), Digitaria sanguinalis (DIGSA), Eleusine indica (ELEIN), Echinochloa crus-galli (ECHCG), Setaria faberi (SETFA)

[2] = system: Ipomoea hederacea (IPOHE); test: Post-emergence efficacy, Method B; settings: read-out: Control of weed species after post-emergence application, IPOHE
Procedure: as §1, §2, §3

[3] = system: Chenopodium album (CHEAL); test: Post-emergence efficacy, Method B; settings: read-out: Control of weed species after post-emergence application, CHEAL
Procedure: as §1, §2, §3

[4] = system: Amaranthus retroflexus (AMARE); test: Post-emergence efficacy, Method B; settings: read-out: Control of weed species after post-emergence application, AMARE
Procedure: as §1, §2, §3

[5] = system: Digitaria sanguinalis (DIGSA); test: Post-emergence efficacy, Method B; settings: read-out: Control of weed species after post-emergence application, DIGSA
Procedure: as §1, §2, §3

[6] = system: Echinochloa crus-galli (ECHCG); test: Post-emergence efficacy, Method B; settings: read-out: Control of weed species after post-emergence application, ECHCG
Procedure: as §1, §2, §3

Setaria faberi (SETFA) [7] = test: Post-emergence efficacy, Method B; settings: read-out: Control of weed species after post-emergence application, SETFA
Procedure: as §1, §2, §3

[8] = system: Euphorbia heterophylla (EPHHL); test: Post-emergence efficacy, Method B; settings: read-out: Control of weed species after post-emergence application, EPHHL
Procedure: as §1, §2, §3

Lolium perenne (LOLPE) [9] = test: Post-emergence efficacy, Method B; settings: read-out: Control of weed species after post-emergence application, LOLPE
Procedure: as §1, §2, §3

Eleusine indica (ELEIN) [10] = test: Post-emergence efficacy, Method A; settings: Eleusine indica, post-emergence, 312 h, evaluated after 13 days
Outline: (§4)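 Post-emergence spray on 14-day-old glasshouse plants (24/16 °C day/night, 14 h photoperiod, 65% humidity). Test material was taken up in acetone and IF50 emulsifier mix, then diluted with sodium lauryl ether sulphate (0.25% or 1%) plus 1% ammonium sulphate. Damage was rated 13 days later, 100 = total.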

[11] = system: Chenopodium album (CHEAL); test: Post-emergence efficacy, Method A; settings: Chenopodium album, post-emergence, 312 h, evaluated after 13 days
Outline: as §4

[12] = system: Euphorbia heterophylla (EPHHL); test: Post-emergence efficacy, Method A; settings: Euphorbia heterophylla, post-emergence, 312 h, evaluated after 13 days
Outline: as §4

[13] = system: Amaranthus palmeri (AMAPA); test: Post-emergence efficacy, Method A; settings: Amaranthus palmeri, post-emergence, 312 h, evaluated after 13 days
Outline: as §4

[14] = system: Ipomoea hederacea (IPOHE); test: Post-emergence efficacy, Method A; settings: Ipomoea hederacea, post-emergence, 312 h, evaluated after 13 days
Outline: as §4

[15] = system: Digitaria sanguinalis (DIGSA); test: Post-emergence efficacy, Method A; settings: Digitaria sanguinalis, post-emergence, 312 h, evaluated after 13 days
Outline: as §4

[16] = system: Echinochloa crus-galli (ECHCG); test: Post-emergence efficacy, Method A; settings: Echinochloa crus-galli, post-emergence, 312 h, evaluated after 13 days
Outline: as §4

Setaria faberi (SETFA) [17] = test: Post-emergence efficacy, Method A; settings: Setaria faberi, post-emergence, 312 h, evaluated after 13 days
Outline: as §4

Lolium perenne (LOLPE) [18] = test: Post-emergence efficacy, Method A; settings: Lolium perenne, post-emergence, 312 h, evaluated after 13 days
Outline: as §4

[19] = Application Rate 500 g/Ha, Method A, read-out: Control of weed species after post-emergence application, ELEIN (100=total damage to plant; 0=no damage to plant)
[20] = Application Rate 500 g/Ha, Method A, read-out: Control of weed species after post-emergence application, CHEAL (100=total damage to plant; 0=no damage to plant)
[21] = Application Rate 500 g/Ha, Method A, read-out: Control of weed species after post-emergence application, EPHHL (100=total damage to plant; 0=no damage to plant)
[22] = Application Rate 500 g/Ha, Method A, read-out: Control of weed species after post-emergence application, AMAPA (100=total damage to plant; 0=no damage to plant)
[23] = Method B, 500 g/Ha, 100=total damage to plant, 0=no damage
[24] = Method B, 1000 g/Ha, 100=total damage to plant, 0=no damage

## N[C@H](CC[n+]1ccc(-c2ncccn2)cn1)C(=O)O [Compound A207, [(1R)-1-carboxy-3-(4-pyrimidin-2-ylpyridazin-1-ium-1-yl)propyl]ammonium 2,2,2-trifluoroacetate]
Eleusine indica (ELEIN) [1]
  pest or weed control at 1000 g/ha: 100%
[2]
  pest or weed control at 1000 g/ha: 100%
[3]
  pest or weed control at 1000 g/ha: 90%
[4]
  pest or weed control at 1000 g/ha: 100%
[5]
  pest or weed control at 1000 g/ha: 90%
[6]
  pest or weed control at 1000 g/ha: 100%
Setaria faberi (SETFA) [7]
  pest or weed control at 1000 g/ha: 100%
[8]
  pest or weed control at 1000 g/ha: 70%
Lolium perenne (LOLPE) [9]
  pest or weed control at 1000 g/ha: 20%
Eleusine indica (ELEIN) [10]; [19]
  pest or weed control at 500 g/ha: 100%
[11]; [20]
  pest or weed control at 500 g/ha: 100%
[12]; [21]
  pest or weed control at 500 g/ha: 90%
[13]; [22]
  pest or weed control at 500 g/ha: 100%

## O=S(=O)([O-])CC[n+]1ccc(-c2ccncn2)cn1 [Compound A4]
Eleusine indica (ELEIN) [1]; [23]
  pest or weed control at 500 g/ha: 80%
[2]; [23]
  pest or weed control at 500 g/ha: 100%
[3]; [23]
  pest or weed control at 500 g/ha: 80%
[4]; [23]
  pest or weed control at 500 g/ha: 100%
[5]; [23]
  pest or weed control at 500 g/ha: 100%
[6]; [23]
  pest or weed control at 500 g/ha: 70%
Setaria faberi (SETFA) [7]; [23]
  pest or weed control at 500 g/ha: 40%
[8]; [23]
  pest or weed control at 500 g/ha: 100%
Lolium perenne (LOLPE) [9]; [23]
  pest or weed control at 500 g/ha: 90%
Eleusine indica (ELEIN) [10]; Application rate 500 g/Ha, 100=total damage to plant, 0=no damage to plant, read-out: Control of weed species after post-emergence application, ELEIN
  pest or weed control at 500 g/ha: 100%
[14]; Application rate 500 g/Ha, 100=total damage to plant, 0=no damage to plant, read-out: Control of weed species after post-emergence application, IPOHE
  pest or weed control at 500 g/ha: 90%
[11]; Application rate 500 g/Ha, 100=total damage to plant, 0=no damage to plant, read-out: Control of weed species after post-emergence application, CHEAL
  pest or weed control at 500 g/ha: 80%
[15]; Application rate 500 g/Ha, 100=total damage to plant, 0=no damage to plant, read-out: Control of weed species after post-emergence application, DIGSA
  pest or weed control at 500 g/ha: 80%
[16]; Application rate 500 g/Ha, 100=total damage to plant, 0=no damage to plant, read-out: Control of weed species after post-emergence application, ECHCG
  pest or weed control at 500 g/ha: 60%
Setaria faberi (SETFA) [17]; Application rate 500 g/Ha, 100=total damage to plant, 0=no damage to plant, read-out: Control of weed species after post-emergence application, SETFA
  pest or weed control at 500 g/ha: 60%
[12]; Application rate 500 g/Ha, 100=total damage to plant, 0=no damage to plant, read-out: Control of weed species after post-emergence application, EPHHL
  pest or weed control at 500 g/ha: 100%
[13]; Application rate 500 g/Ha, 100=total damage to plant, 0=no damage to plant, read-out: Control of weed species after post-emergence application, AMAPA
  pest or weed control at 500 g/ha: 100%
Lolium perenne (LOLPE) [18]; Application rate 500 g/Ha, 100=total damage to plant, 0=no damage to plant, read-out: Control of weed species after post-emergence application, LOLPE
  pest or weed control at 500 g/ha: 100%

## O=C([O-])CCC[n+]1ccc(-c2ncccn2)cn1 [Compound A220]
Eleusine indica (ELEIN) [1]; [24]
  pest or weed control at 1000 g/ha: 100%
[2]; [24]
  pest or weed control at 1000 g/ha: 30%
[3]; [24]
  pest or weed control at 1000 g/ha: 90%
[4]; [24]
  pest or weed control at 1000 g/ha: 100%
[5]; [24]
  pest or weed control at 1000 g/ha: 100%
[6]; [24]
  pest or weed control at 1000 g/ha: 90%
Setaria faberi (SETFA) [7]; [24]
  pest or weed control at 1000 g/ha: 30%
[8]; [24]
  pest or weed control at 1000 g/ha: 100%
Lolium perenne (LOLPE) [9]; [24]
  pest or weed control at 1000 g/ha: 90%
Eleusine indica (ELEIN) [10]; [19]
  pest or weed control at 500 g/ha: 20%
[14]; Application Rate 500 g/Ha, Method A, read-out: Control of weed species after post-emergence application, IPOHE (100=total damage to plant; 0=no damage to plant)
  pest or weed control at 500 g/ha: 80%
[11]; [20]
  pest or weed control at 500 g/ha: 100%
[15]; Application Rate 500 g/Ha, Method A, read-out: Control of weed species after post-emergence application, DIGSA (100=total damage to plant; 0=no damage to plant)
  pest or weed control at 500 g/ha: 90%
[16]; Application Rate 500 g/Ha, Method A, read-out: Control of weed species after post-emergence application, ECHCG (100=total damage to plant; 0=no damage to plant)
  pest or weed control at 500 g/ha: 40%
Setaria faberi (SETFA) [17]; Application Rate 500 g/Ha, Method A, read-out: Control of weed species after post-emergence application, SETFA (100=total damage to plant; 0=no damage to plant)
  pest or weed control at 500 g/ha: 60%
[12]; [21]
  pest or weed control at 500 g/ha: 90%
[13]; [22]
  pest or weed control at 500 g/ha: 100%
Lolium perenne (LOLPE) [18]; Application Rate 500 g/Ha, Method A, read-out: Control of weed species after post-emergence application, LOLPE (100=total damage to plant; 0=no damage to plant)
  pest or weed control at 500 g/ha: 60%
